Tests used:
mu opiate receptor = target: T1, mu opiate receptor (Rattus norvegicus, UniProt P33535); assay: Inhibition of [3H]DAMGO binding to the mu opiate receptor in rat brain homogenates; parameters: Mean: unit not given beside the values; conditions: 0.08 mg of compound per milliliter, 7 nM 3H-labeled DAMGO, rat brain membranes; for % Bound: [3H]DAMGO bound; for Mean: mean bound radioactivity of [3H]DAMGO; for Minus NSB*: mean minus non-specific binding; for % Inhibition: percent inhibition of DAMGO binding
T1 construct: from tissue; host or cells: rat brain membranes/homogenate
T1 sequence (P33535 whole entry): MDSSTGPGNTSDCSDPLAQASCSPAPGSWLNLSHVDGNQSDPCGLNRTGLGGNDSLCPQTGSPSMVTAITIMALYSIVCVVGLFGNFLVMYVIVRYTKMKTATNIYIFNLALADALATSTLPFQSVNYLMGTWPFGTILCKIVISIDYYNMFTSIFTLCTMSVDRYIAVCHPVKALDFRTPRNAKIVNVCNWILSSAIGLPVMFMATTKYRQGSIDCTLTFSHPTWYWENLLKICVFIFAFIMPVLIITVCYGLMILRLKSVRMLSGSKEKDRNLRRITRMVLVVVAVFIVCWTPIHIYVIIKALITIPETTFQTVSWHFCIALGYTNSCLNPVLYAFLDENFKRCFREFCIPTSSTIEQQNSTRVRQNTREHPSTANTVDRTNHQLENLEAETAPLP
In short: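 Members of an imidazo-imidazolone compound library were tested for blocking binding of [^3H]DAMGO, a mu opiate receptor-specific ligand, to rat brain membranes. Each 0.65 mL tube held 0.08 mg of compound mixture per milliliter, 0.5 mL membrane suspension (0.1 mg of protein) and 7 nM ^3H-labeled DAMGO (36 Ci/mmol) in 50 mM Tris-HCl buffer (pH 7.4).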

kappa opiate receptor = target: T2, kappa opiate receptor (Cavia porcellus, UniProt P41144); assay: Inhibition of tritiated U69,593 binding to the kappa opiate receptor in guinea pig brain homogenates; parameters: Mean: unit not given beside the values; conditions: 3 nm tritiated U69,593, guinea pig brain membranes; for % Bound: [3H]U69,593 bound; for % Inhibition: inhibition of [3H]U69,593 binding; for Mean: mean bound radioactivity of [3H]U69,593, 2.5 hours 25° C.; for Minus NSB: mean minus non-specific binding
T2 construct: guinea pig cortices and cerebella were homogenized in 40 mL of Buffer A; from tissue; host or cells: guinea pig cortices and cerebella, crude membrane suspension
T2 sequence (P41144 whole entry): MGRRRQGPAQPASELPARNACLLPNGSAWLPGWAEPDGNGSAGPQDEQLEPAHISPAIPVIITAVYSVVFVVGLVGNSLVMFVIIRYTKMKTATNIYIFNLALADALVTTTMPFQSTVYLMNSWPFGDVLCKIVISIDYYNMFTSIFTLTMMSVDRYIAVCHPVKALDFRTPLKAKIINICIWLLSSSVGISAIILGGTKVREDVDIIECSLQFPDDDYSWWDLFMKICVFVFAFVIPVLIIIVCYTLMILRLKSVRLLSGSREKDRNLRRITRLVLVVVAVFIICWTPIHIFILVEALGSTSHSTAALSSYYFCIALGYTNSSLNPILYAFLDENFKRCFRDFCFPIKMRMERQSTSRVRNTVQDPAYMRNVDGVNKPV
In short: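 Guinea pig cortex and cerebellum membranes in 50 mM Tris-HCl pH 7.4 incubated with 3 nM [³H]U69,593 for 2.5 h at 25 °C, then filtered and bound radioactivity counted. Unlabelled U50,488 served as competitor for standard curve and nonspecific binding.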

| Structure (SMILES) | % Bound (mu opiate receptor) [%] | Mean (mu opiate receptor) | Minus NSB* (mu opiate receptor) | % Inhibition (mu opiate receptor) [%] | % Bound (kappa opiate receptor) [%] | % Inhibition (kappa opiate receptor) [%] | Mean (kappa opiate receptor) | Minus NSB (kappa opiate receptor) |
| --- | --- | --- | --- | --- | --- | --- | --- | --- |
| Cc1nc(C(C)C)c2n1C(C(C)C)C(=O)N2 (stereo not drawn) [Pool 142] | 67 | 946.05 | 638.05 | 33 | 79.324 | 20.676 | 1728.8 | 821.80 |
| CC(C)c1nc(C2CCC2)n2c1NC(=O)C2C(C)C (stereo not drawn) [Pool 144] | 59 | 867.3 | 559.30 | 41 | 52.172 | 47.828 | 1447.5 | 540.50 |
| CC(C)c1nc(C2CCCC2)n2c1NC(=O)C2C(C)C (stereo not drawn) [Pool 145] | 71 | 986.9 | 678.90 | 29 | 61.501 | 38.499 | 1544.15 | 637.15 |
| CC(C)c1nc(CCC2CCCC2)n2c1NC(=O)C2C(C)C (stereo not drawn) [Pool 146] | 67 | 945.85 | 637.85 | 33 | 69.088 | 30.912 | 1622.75 | 715.75 |
| CC(C)c1nc(CCC2CCCCC2)n2c1NC(=O)C2C(C)C (stereo not drawn) [Pool 148] | 61 | 890.8 | 582.80 | 39 | 89.971 | 10.029 | 1839.1 | 932.10 |
| CC1CCC(Cc2nc(C(C)C)c3n2C(C(C)C)C(=O)N3)CC1 (stereo not drawn) [Pool 152] | 48 | 770.1 | 462.10 | 52 | 58.697 | 41.303 | 1515.1 | 608.10 |
| CC(C)c1nc(CC2CC3CCC2C3)n2c1NC(=O)C2C(C)C (stereo not drawn) [Pool 155] | 64 | 918.35 | 610.35 | 36 | 69.040 | 30.960 | 1622.25 | 715.25 |
| CC(C)c1nc(CC23CC4CC(CC(C4)C2)C3)n2c1NC(=O)C2C(C)C (stereo not drawn) [Pool 156] | 65 | 925.85 | 617.85 | 35 | 78.803 | 21.197 | 1723.4 | 816.40 |
| CCC(CC)c1nc(C(C)C)c2n1C(C(C)C)C(=O)N2 (stereo not drawn) [Pool 157] | 65 | 930.35 | 622.35 | 35 | 54.638 | 45.362 | 1473.05 | 566.05 |

— patent publication US6545032B1, “Synthesis of [3,5,7]-H-imidazo[1,5-a] imidazol-2(3H)-one compounds” (Torrey Pines Institute for Molecular Studies, priority 1999, dated 2003)
